Data as given in patent US10793589B2, “Resorcinarene-based amphipathic compound and use thereof” (Industry-University Cooperation Foundation Hanyang …, priority 2016, dated 2020).
Entries after “also recorded” stand apart in the source; their conditions may differ.

Tests used:
[1] = Critical micelle concentration by fluorescence dye diphenylhexatriene (DPH); assay type: physicochemical; details: DPH fluorescence
Method: A method of measuring the CMC is not particularly limited and may be any method generally known in the art. For example, the CMC may be measured according to a fluorescence staining method using diphenylhexatriene (DPH).
(§1) Specifically, critical micelle concentrations (CMCs) were measured using a fluorescence dye, diphenylhexatriene (DPH), and hydrodynamic radii (Rh) of micelles formed of each compound (1.0 wt %) were measured by a dynamic light scattering (DLS) experiment. Measured results are shown in Table 1 in comparison with values of DDM as an existing amphipathic molecule (detergent).

[2] = Hydrodynamic radius and size distribution of micelles by dynamic light scattering (DLS); assay type: physicochemical; details: compound 1.0 wt %
Method: A method of measuring the radius of a micelle is not particularly limited and may be any method generally known in the art. For example, the radius may be measured by a dynamic light scattering (DLS) experiment.
as §1
Meanwhile, size distributions of the micelles formed by RGAs and RMAs were measured using DLS.

[3] = target: T1, uric acid-xanthine/H+ symporter (UapA) (Emericella nidulans, UniProt Q07307, G411V); assay: UapA structural/thermal stability (FSEC, CPM assay); assay type: biochemical, Aspergillus nidulans; details: FIG. 5 (RGAs, FSEC), FIG. 6 (RMAs, CPM assay 40° C. 150 min, CMC+0.04 or CMC+0.2 wt %)
T1 construct: GFP; made in house; host or cells: Saccharomyces cerevisiae FGY217
Method: FIGS. 5A and 5B are a set of graphs illustrating a result of measuring the thermal stability of UapA in an aqueous solution caused by RGAs or DDM via fluorescence-detection size exclusion chromatography (FSEC):
FIGS. 6A and 6B are a set of graph illustrating a result of measuring thermal denaturation profile of UapA protein in DDM and novel RMAs (RMA-Cs and RMA-CEs) used at CMC+0.04 wt % (a) or CMC+0.2 wt % (b). Protein stability was assessed by CPM assay carried out at 40° C. for 150 min.
An experiment was carried out to measure the structural stability of a uric acid-xanthine/H^+ symporter (UapA) isolated from Aspergillus nidulans caused by RGAs and RMAs. The structural stability of UapA was measured using a sulfhydryl-specific fluorophore, N-[4-(7-diethylamino-4-methyl-3-coumarinyl)phenyl] maleimide (CPM).
Specifically, UapAG411V1-11 (hereinafter, referred to as “UapA”) was expressed in combination with GFP in Saccharomyces cerevisiae FGY217 strains and isolated into a sample buffer (20 mM Tris (pH 7.5), 150 mM NaCl, 0.03% DDM, and 0.6 mM xanthine) according to the method described in the paper (Mol. Membr. Biol. 2013, 30, 32-42) written by J. Leung et al. The membranes containing UapA were diluted to a final protein concentration of 2.8 mg ml^−1 in PBS (pH 7.4) supplemented with either 1% DDM or 1% RMAs or RGAs. […]

[4] = target: T2, human β2 adrenergic receptor (β2AR) (Homo sapiens, UniProt P07550); assay: β2AR stability, [3H]-dihydroalprenolol (DHA) ligand binding assay; assay type: biochemical; details: for maintaining the ligand binding characteristic of the receptor compared to DDM: 0 hour, CMC+0.2 wt %, [3H]-DHA
T2 construct: made in house
Method: (§2) FIGS. 10A and 10B illustrate a result of measuring the effect of RGAs on the stability of β2AR after (a) 0 hour and (b) over time. Protein-ligand binding characteristics were measured via ligand binding assay using [^3H]-dihydroalprenolol (DHA), and the measurement was carried out by sampling a protein sample at regular intervals during 2 days of storage at room temperature.
as §2, with “12A” for “10A”, “12B” for “10B”, “RMAs” for “RGAs”
An experiment was carried out to measure the structural stability of a human (32 adrenergic receptor (β2AR) and a G protein-coupled receptor (GPCR) caused by RGAs and RMAs. That is, a receptor purified with DDM was diluted with a buffer solution containing only each RGA and RMA without cholesteryl hemisuccinate (CHS) or a buffer solution containing CHS and DDM. The final concentration of the compound was CMC+0.2 wt %, and the ligand binding characteristic of the receptor was measured using [^3H]-dihydroalprenolol ([^3H]-DHA) binding.
Specifically, radioligand binding assay was carried out using the following method. β2AR was purified using 0.1% DDM according to the method described in a paper (Science, 2007, 318, 1266-1273.) written by D. M. Rosenbaum et al. and finally concentrated to about 10 mg/ml (about 200 μM). The β2AR purified with DDM was used to prepare a master binding mixture containing 10 nM [^3H]-dihydroalprenolol (DHA) supplemented with 0.5 mg/ml BSA in a 0.2% amphipathic compound (DDM, RGAs or RMAs). The receptor purified with DDM, RGAs or RMAs was incubated with 10 nM [^3H]-DHA at room temperature for 30 minutes. The mixture was loaded into a G-50 column, the flow-through was collected with 1 ml of a binding buffer (20 mM HEPES pH 7.5, 100 mM NaCl, supplemented with 0.5 mg/ml BSA and 20×CMC individual amphipathic compound, and the G-50 column was further filled with 15 ml of a scintillation fluid. Receptor-bound [^3H]-DHA was measured with a scintillation counter (Beckman). The binding capacity of [^3H]-DHA was measured and shown in a column graph. Each experiment was performed in triplicate.

[5] = target: T3, Salmonella typhimurium melibiose permease (MelB) (Salmonella typhimurium, UniProt P30878); assay: MelB extraction and solubility after 90 min incubation, SDS-PAGE and western blotting; assay type: biochemical; details: 55° C., 1.5 wt %
T3 construct: made in house; host or cells: E. coli DW2 (melB and lacZY deleted), plasmid pK95AHB/WT MelBSt/CH10
Method: FIGS. 9A and 9B illustrate a result of measuring the amount of a MelB protein dissolved in an aqueous solution after a MelB protein was extracted at four temperatures (0, 45, 55, and 65) using RGAs or DDM at a concentration of 1.5 wt % and then incubated at the same temperatures for 90 minutes:
RGAs were selected, and an experiment was carried out to measure the structural stability of a Salmonella typhimurium melibiose permease (MelB) caused by RGAs. A MelB protein was extracted from a membrane using RGAs or DDM, and the amount and structure of the protein thus extracted was then analyzed by performing SDS-PAGE and western blotting. In this case, the concentration of the used amphipathic compound was 1.5 wt %. The protein was extracted at four temperatures (0, 45, 55, and 65° C.) and then incubated at the same temperatures for 90 minutes. Subsequently, two kinds of performance of the compound, that is, protein extraction efficiency and protein stability were evaluated at the same time by measuring the amount of a protein which remained dissolved in an aqueous solution. The amount of a protein which was extracted and stabilized by an individual amphipathic molecule was expressed as a relative value (%) with respect to the amount of the entire protein included in a membrane sample not treated with an amphipathic molecule.
Specifically, a C-terminal 10-His-tagged Salmonella typhimurium melibiose permease (MelBSt) was expressed in E. coli DW2 cells (melB and lacZY) using plasmid pK95AHB/WT MelBSt/CH10. Cells were grown and membranes were prepared according to the method described in a paper (Nat. Commun. 2014, 5, 3009) written by A. S. Ethayathulla et al. A protein assay was carried out with a Micro BCA kit (Thermo Scientific, Rockford, Ill.). RGAs and DDM were evaluated to measure the stability of MelBSt according to the protocol described in a paper (Nat. Methods 2010, 7, 1003-1008) written by P. S. Chae et al. The membrane sample (final protein concentration of 10 mg/mL) containing MelBSt was incubated in a solubilization buffer containing 1.5% (w/v) DDM or RGAs (20 mM sodium phosphate, pH 7.5, 200 mM NaCl, 10% glycerol, and 20 mM melibiose) at four temperatures (0, 45, 55, and 65° C.) for 90 minutes. An insoluble material was removed by ultracentrifugation at 355,590 g at 4° C. for 45 minutes using a Beckman Optima™ MAX ultracentrifuge equipped with a TLA-100 rotor. A dissolved portion was separated by SDS-16% PAGE, and immunoblotting was then performed using a Penta-His-HRP antibody (Qiagen, Germantown, Md.). A membrane fraction containing 20 μg of protein without treatment was used to illustrate the overall MelB, and the treated samples were loaded into each well in equal volume. MelBSt was measured using the SuperSignal West Pico Chemiluminescent substrate by ImageQuant LAS 4000 Biomolecular Imager (GE Healthcare Life Sciences).

[6] = target: T2, human β2 adrenergic receptor (β2AR); assay: Size exclusion chromatography (SEC) of β2AR receptor-detergent complex; details: 20×CMC detergent
Method: FIG. 11 illustrates a result of evaluating the size characteristic of a (32AR protein-ligand binding complex formed of RGA-C11, RGA-C13, or DDM via a size exclusion chromatography (SEC) test.
In addition, a size exclusion chromatography (SEC) test was conducted. Specifically, β2AR purified with 0.1% DDM was loaded on a M1 Flag column in the presence of 2 mM CaCl2, and the column was washed with a DDM, RGA-C11 or RGA-C13 detergent buffer (20 mM HEPES pH 7.5, 100 mM NaCl, 0.2% individual amphipathic compound). The receptor was eluted with 20×CMC DDM, RGA-C11, or RGA-C13 with 5 mM EDTA and 0.2 mg/ml free Flag peptide. The eluate was further added to a Superdex-200 10/300 GL column (GE Healthcare) at 0.5 ml/min, and UV absorbance at 280 nm was recorded. The running buffer contained 20 mM HEPES pH 7.5, 100 mM NaCl, 20×CMC individual detergent (DDM, RGA-C11 and RGA-C13).

T2 sequence (P07550 whole entry): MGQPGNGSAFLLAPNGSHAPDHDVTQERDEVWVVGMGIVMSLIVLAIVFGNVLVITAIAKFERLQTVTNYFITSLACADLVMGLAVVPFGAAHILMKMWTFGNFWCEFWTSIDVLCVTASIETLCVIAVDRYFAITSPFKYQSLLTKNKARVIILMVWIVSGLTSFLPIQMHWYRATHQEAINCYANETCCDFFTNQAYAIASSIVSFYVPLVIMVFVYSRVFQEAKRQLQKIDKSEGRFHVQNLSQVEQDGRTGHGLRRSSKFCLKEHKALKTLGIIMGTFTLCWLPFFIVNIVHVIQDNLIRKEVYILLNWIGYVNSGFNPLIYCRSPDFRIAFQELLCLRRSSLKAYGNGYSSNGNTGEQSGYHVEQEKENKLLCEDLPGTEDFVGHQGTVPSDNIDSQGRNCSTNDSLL
T3 sequence (P30878 whole entry): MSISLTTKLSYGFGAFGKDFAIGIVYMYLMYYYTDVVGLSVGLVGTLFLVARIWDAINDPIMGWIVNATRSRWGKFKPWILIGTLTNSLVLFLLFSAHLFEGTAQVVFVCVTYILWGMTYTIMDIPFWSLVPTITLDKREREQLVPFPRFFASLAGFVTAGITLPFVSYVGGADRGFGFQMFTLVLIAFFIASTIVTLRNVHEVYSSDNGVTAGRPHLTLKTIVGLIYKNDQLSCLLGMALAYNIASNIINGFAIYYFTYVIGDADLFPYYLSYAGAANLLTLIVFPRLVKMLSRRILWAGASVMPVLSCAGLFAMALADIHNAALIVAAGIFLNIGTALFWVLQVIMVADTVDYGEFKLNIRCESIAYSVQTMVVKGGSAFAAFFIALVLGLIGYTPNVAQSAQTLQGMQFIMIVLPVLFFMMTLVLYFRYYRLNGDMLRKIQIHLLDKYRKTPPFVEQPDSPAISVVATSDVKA
T1 sequence (Q07307 12-574 G411V): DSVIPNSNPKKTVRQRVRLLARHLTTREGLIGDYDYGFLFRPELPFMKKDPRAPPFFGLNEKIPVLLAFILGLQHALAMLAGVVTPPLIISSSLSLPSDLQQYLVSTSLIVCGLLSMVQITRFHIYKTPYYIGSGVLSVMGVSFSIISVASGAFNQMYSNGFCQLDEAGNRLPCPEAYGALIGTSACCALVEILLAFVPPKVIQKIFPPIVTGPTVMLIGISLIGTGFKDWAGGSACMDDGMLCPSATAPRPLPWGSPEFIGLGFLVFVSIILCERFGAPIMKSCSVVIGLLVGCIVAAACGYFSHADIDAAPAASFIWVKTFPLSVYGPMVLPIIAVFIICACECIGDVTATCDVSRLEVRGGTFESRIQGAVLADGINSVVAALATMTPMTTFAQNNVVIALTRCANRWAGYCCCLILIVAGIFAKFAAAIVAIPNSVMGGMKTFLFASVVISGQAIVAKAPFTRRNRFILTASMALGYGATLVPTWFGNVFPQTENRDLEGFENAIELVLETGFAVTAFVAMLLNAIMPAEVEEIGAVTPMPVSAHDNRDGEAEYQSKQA

SMILES | CMC [1] | CMC (wt %) [1] | Rh (nm), hydrodynamic radius of micelles [2] | ability to maintain the UapA protein in a folded state compared to DDM [3] | maintaining the ligand binding characteristic of the receptor compared to DDM [4] | MelB protein extraction efficiency and solubility [5] | ability to maintain the ligand binding of the receptor over time compared to DDM ([4]; 2 days at room temperature, early stage (0 to 12 h)) | size of receptor-detergent complex [6]
CCCCCCCC[C@H]1c2cc(c(OCCO[C@@H]3OC(CO)[C@@H](O)[C@H](O)C3O)cc2OCCO[C@@H]2OC(CO)[C@@H](O)[C@H](O)C2O)[C@H](CCCCCCCC)c2cc(c(OCCO[C@@H]3OC(CO)[C@@H](O)[C@H](O)C3O)cc2OCCO[C@@H]2OC(CO)[C@@H](O)[C@H](O)C2O)[C@@H](CCCCCCCC)c2cc(c(OCCO[C@@H]3OC(CO)[C@@H](O)[C@H](O)C3O)cc2OCCO[C@@H]2OC(CO)[C@@H](O)[C@H](O)C2O)[C@@H](CCCCCCCC)c2cc1c(OCCO[C@@H]1OC(CO)[C@@H](O)[C@H](O)C1O)cc2OCCO[C@@H]1OC(CO)[C@@H](O)[C@H](O)C1O (some centres unmarked) [RGA-C9] | ~7 µM | ~0.018 wt % | 2.9 ± 0.1 nm | highest effect | inferior to DDM |  |  | 
CCCCCCCCCC[C@H]1c2cc(c(OCCO[C@@H]3OC(CO)[C@@H](O)[C@H](O)C3O)cc2OCCO[C@@H]2OC(CO)[C@@H](O)[C@H](O)C2O)[C@H](CCCCCCCCCC)c2cc(c(OCCO[C@@H]3OC(CO)[C@@H](O)[C@H](O)C3O)cc2OCCO[C@@H]2OC(CO)[C@@H](O)[C@H](O)C2O)[C@@H](CCCCCCCCCC)c2cc(c(OCCO[C@@H]3OC(CO)[C@@H](O)[C@H](O)C3O)cc2OCCO[C@@H]2OC(CO)[C@@H](O)[C@H](O)C2O)[C@@H](CCCCCCCCCC)c2cc1c(OCCO[C@@H]1OC(CO)[C@@H](O)[C@H](O)C1O)cc2OCCO[C@@H]1OC(CO)[C@@H](O)[C@H](O)C1O (some centres unmarked) [RGA-C11] |  | ~0.0081 wt % | 6.8 ± 0.2 nm |  | superior to DDM | maintained MelB solubility better than DDM; also recorded: higher protein extraction efficiency than DDM | superior ability to maintain the ligand binding of the receptor compared to DDM | significantly smaller than that formed of DDM
